Assay [1] addresses T1, spASADH (Streptococcus pneumoniae, UniProt Q8DQ00).
T1 sequence (Q8DQ00 1-358): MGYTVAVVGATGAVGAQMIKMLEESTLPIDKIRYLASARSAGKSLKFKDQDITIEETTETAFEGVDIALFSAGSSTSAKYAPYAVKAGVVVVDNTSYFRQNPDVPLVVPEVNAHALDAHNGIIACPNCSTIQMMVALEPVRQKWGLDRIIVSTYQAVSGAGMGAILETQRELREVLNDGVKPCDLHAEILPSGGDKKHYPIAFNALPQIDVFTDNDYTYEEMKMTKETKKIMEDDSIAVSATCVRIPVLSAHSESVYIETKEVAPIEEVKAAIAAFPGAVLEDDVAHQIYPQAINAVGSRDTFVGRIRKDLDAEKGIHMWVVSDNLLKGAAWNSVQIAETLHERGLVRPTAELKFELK
The settings on record: in words; ref [14]; cited from earlier work.

The target in another assay is ASADH (Vibrio cholerae serotype O1, UniProt Q9KQG2). In words: Kinetic inhibition of ASADH by substrate analogue. The following applies: inhibitor of ASADH, enzyme form not stated. The assay is classed as biochemical.
The target in assay [2] is T1, spASADH. As to the kind of experiment: Kinetic inhibition of spASADH. Format: biochemical.

Broadly, the pKi is the Ki on a negative log10 scale, so that one unit is a factor of ten. Low values mean a large Ki, high ones a small Ki.

pKi: −log10 of the molar value.

Chain of ASADH (Q9KQG2 whole entry): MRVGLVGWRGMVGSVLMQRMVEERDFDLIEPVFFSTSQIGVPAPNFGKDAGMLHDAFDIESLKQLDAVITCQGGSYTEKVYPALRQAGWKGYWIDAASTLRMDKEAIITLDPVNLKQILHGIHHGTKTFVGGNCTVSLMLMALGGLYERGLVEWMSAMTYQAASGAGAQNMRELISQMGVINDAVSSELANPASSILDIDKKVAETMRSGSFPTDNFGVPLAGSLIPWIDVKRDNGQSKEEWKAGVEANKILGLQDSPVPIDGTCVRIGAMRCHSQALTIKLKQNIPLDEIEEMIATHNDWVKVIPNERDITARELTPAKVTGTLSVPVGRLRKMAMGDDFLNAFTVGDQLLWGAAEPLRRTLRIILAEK

In the case of `NC(CCCC(=O)O)C(=O)O` (racemic) [DL-2-aminoadipate], the inhibitory activity result on spASADH [1] is recorded as “little inhibitory activity”.

`C=CC[S@+]([O-])C[C@H](N)C(=O)O` [S-allyl-L-cysteine sulfoxide] gave a pKi at ASADH of 5.10.

Take `Nc1cc(C(=O)O)ccc1C(=O)O` [2-aminoterephthalate]: the pKi on spASADH [2] is 3.11. Besides, on spASADH [2] (ratio of Ki values), the “enhanced affinity relative to terephthalic acid” value is “greater than 6 fold”.

`O=C(O)c1ccc(C(=O)O)cc1` [Terephthalic acid, benzene-1,4-dicarboxylic acid]: the pKi on spASADH [2] was roughly 2.30.

For the molecule `O=C(O)C1CCC(C(=O)O)CC1` (stereo not drawn) [cyclohexane-1,4-dicarboxylate], the “higher affinity than 2-aminoterephthalate” value on spASADH [2] (ratio of Ki values) is 2 fold.
